Publication PMC7911889 (Viruses, 2021)

Target: SARS-CoV-2 3CL^pro (Severe acute respiratory syndrome coronavirus 2, UniProt P0DTD1)
Assay type: cell-based

GRL-0496
Effect on luciferase reporter activity / 3CL^pro inhibition (in words): clearly inhibited SARS-CoV-2 3CL^pro
